# Measurements as given in patent US20250250241A1, “COMPOUND, PREPARATION AND USE THEREOF IN RUBBER BLENDS AND VEHICLE TIRES, AS AN ANTI-AGING AGENT, ANTIOXIDANT, ANTIOXIDANT AND/OR COLORING AGENT” (Continental Reifen Deutschland GmbH, priority 2022, published 2025).
# Test: Measurement of oxidation induction time (OIT) by DSC
# Assay type: physicochemical
# Conditions: with liquid polyisoprene LIR-50, DSC; for Time until onset of oxidation (oxidation induction time) at 150° C.: isothermal 150° C., experiments terminated after 900 minutes; for Time until onset of oxidation (oxidation induction time) at 150° C. / Time until onset of oxidation (oxidation induction time) at 165° C.: O2 atmosphere; for Time until onset of oxidation (oxidation induction time) at 165° C.: isothermal 165° C.; for Time until onset of oxidation (oxidation induction time) at 180° C.: isothermal 180° C., O2 atmosphere 50 ml/min
# Method: Measurement of Oxidation Induction Time (OIT)
# The compound of formula III) was investigated under laboratory conditions for its potential protective effect as an aging stabilizer by measurement of the oxidation induction time.
# To this end the compounds of formula III) and 6PPD, in each case together with a polymer (liquid synthetic polyisoprene (IR), LIR-50, Kuraray, weight average molecular weight distribution Mw=54 000 g/mol, glass transition temperature Tg=−63° C.), were heated at constant temperature at three different temperatures (180° C.; 165° C.; 150° C.) until onset of oxidation.
# Heating to 180° C. was carried out as follows: • Starting temperature 35° C., heating to 170° C. at a heating rate of 20 K/min (kelvin per minute), heating to 180° C. at a heating rate of 1 K/min; purge gas: nitrogen (N2), volume flow 50 ml/min).
# The specimen was kept under isothermal conditions at 180° C. under an N2 atmosphere for 5 minutes and the atmosphere was then switched to an O2 atmosphere (volume flow 50 ml/min).
# The heating to 165° C. was carried out analogously by first heating to 155° C. at a heating rate of 20 K/min (kelvin per minute) and then heating to 165° C. at a heating rate of 1 K/min.
# The heating to 150° C. was carried out analogously by first heating to 140° C. at a heating rate of 20 K/min (kelvin per minute) and then heating to 150° C. at a heating rate of 1 K/min.
# Oxidation was determined over one peak using DSC (differential scanning calorimetry).
# The time in minutes until oxidation was measured in each case.
SMILES,Time until onset of oxidation (oxidation induction time) at 150° C. [min],Time until onset of oxidation (oxidation induction time) at 165° C. [min],Time until onset of oxidation (oxidation induction time) at 180° C. [min]
"CC(C)CC(C)Nc1ccc(Nc2ccccc2)cc1 (stereo not drawn) [Formula 6PPD, N-(1,3-dimethylbutyl)-N′-phenyl-p-phenylenediamine]",>900,356 ± 10,116 ± 10
"CC(C)CC(C)Nc1ccc2c(c1)C(=O)Nc1ccccc1N2 (stereo not drawn) [Formula III), 2-(1,3-dimethylbutylamino)-5,10-dihydro-dibenzo[b,e][1,4]diazepin-11-one]",>900,459 ± 10,169 ± 10
